Experiments:
[1] = Acute toxicity (LD50, Litchfield-Wilcoxon test); conditions: mouse, in vivo, ip; intraperitoneal; deaths counted 48 hours after treatment; fasted mice
Description: Acute toxicity studies were performed on I.C.R. Swiss albino mice of both sexes weighing 30±2 g, kept fasting for 24 hours prior to the experiment. The room temperature and relative humidity were kept constant. The products were administered intraperitoneally, counting the number of deaths 48 hours after the treatment. The calculation of lethal dose 50 (LD50) was made by the Litchfield-Wilcoxon test.

I.C.R. Swiss albino mice [2] = experiment: Chemical analgesia, acetic acid writhing technique; type: in vivo; conditions: 25mg/kg, intraperitoneal; for analgesic activity, acetic acid writhing (in words): compared with dextropropoxyphene; for No. of writhes, mean ± S.E.M.: 20 minutes after acetic acid; for Significance of differences vs Dextropropoxyphene: No. of writhes
Description: The analgesic effect was studied on I.C.R. Swiss albino mice with the acetic acid writhing technique. Batches of 10 mice were made.
The products under study were administered intraperitoneally and after 30 minutes 0.25 ml of 1% acetic acid are injected intraperitoneally. A batch of control animals which only receive acetic acid is used. The number of writhes in each mouse is counted 20 minutes after administration of the acetic acid.

I.C.R. Swiss albino mice [3] = experiment: Thermal analgesia, hot plate technique at 55° C.; type: in vivo; conditions: 50mg/kg, intraperitoneal; for thermal analgesic activity (in words): compared with dextropropoxyphene / control; for Jumping time, mean ± S.E.M.: 30 minutes
Description: The thermal analgesic effect was studied on I.C.R. Swiss albino mice. The hot plate technique was used at 55° C. Batches of 10 mice were made.
The products under study were administered intraperitoneally and after 30 minutes the mice were placed on the hot plate, counting the number of seconds they took to jump. Batches of control animals which are only injected with distilled water are used.

[4] = Table VII, Control 109.9 ± 6.362
[5] = Table VI, Control 109.9 ± 6.362
[6] = Table III, Control 48.8 ± 5.033

Structure (SMILES) | LD50 at 48 h [1] | analgesic activity, acetic acid writhing (in words) (I.C.R. Swiss albino mice [2]) | No. of writhes, mean ± S.E.M. (I.C.R. Swiss albino mice [2]; [4]) | Significance of differences vs Dextropropoxyphene (I.C.R. Swiss albino mice [2]; Table VII) | thermal analgesic activity (in words) (I.C.R. Swiss albino mice [3]) | Jumping time, mean ± S.E.M. (I.C.R. Swiss albino mice [3]; Table IV, Control 48.8 ± 5.033) | No. of writhes, mean ± S.E.M. (I.C.R. Swiss albino mice [2]; Table V, Control 101.4 ± 8.973) | No. of writhes, mean ± S.E.M. (I.C.R. Swiss albino mice [2]; [5]) | Jumping time, mean ± S.E.M. (I.C.R. Swiss albino mice [3]; Table II, Control 64 ± 7.919) | Jumping time, mean ± S.E.M. (I.C.R. Swiss albino mice [3]; [6]) | Significance of differences vs Dextropropoxyphene (I.C.R. Swiss albino mice [2]; Table VI) | Significance of differences vs Dextropropoxyphene (I.C.R. Swiss albino mice [3]; Table II, jumping time)
CC1=CC(Cc2csc3ccccc23)N(C)CC1 (stereo not drawn) [Product III, 2-(3-benzo[b]thienylmethyl)-1,4-dimethyl-1,2,5,6-tetrahydropyridine] | 275 mg/kg | not significantly different from that of dextropropoxyphene | 22.5 ± 6.263 | N.S. | lacking thermal analgesic activity | 48.9 ± 5.292 s |  |  |  |  |  | 
CCC(=O)O[C@](Cc1ccccc1)(c1ccccc1)[C@H](C)CN(C)C [Dextropropoxyphene, dextropropoxyphene, reference compound] |  |  | 27.8 ± 8.365 |  |  | 91.3 ± 7.894 s | 21.5 ± 5.929 | 27.8 ± 8.365 | 164 ± 7.319 s | 91.3 ± 7.894 s |  | 
CC1=CCN(C)C(Cc2csc3ccccc23)C1 (stereo not drawn) [Product II, 2-(3-benzo[b]thienylmethyl)-1,4-dimethyl-1,2,3,6-tetrahydropyridine] | 916 mg/kg | not significantly different from that of dextropropoxyphene |  |  | lacking thermal analgesic activity |  |  | 41.2 ± 6.024 |  | 63 ± 8.368 s | N.S. | 
CN1CCC2(C)CC1Cc1c2sc2ccccc12 (racemic) [Product I, 2,5-dimethyl-benzo[b]thieno[2,3-f]morphan] | 35.2 mg/kg | greater analgesic activity then dextropropoxyphene |  |  | analgesic activity which is not significantly different from that of dextropropoxyphene |  | 3.1 ± 1.234 |  | 168.67 ± 11.334 s |  |  | N.S.
